Assay results from US7312228B2, “Cytotoxic indeno and isoindoloisoquinolones” (Purdue Research Foundation, priority 2003, dated 2007).
“And” between values parts separate entries of the source, which are not always exact repeats. Equal values may be shown once. Read-outs that look alike come from different tables or passages of the source.

Key:
[1] = system: SN12C; test: NCI screen antiproliferative activity, renal SN12C; type: cell-based; conditions: Homo sapiens, concentration corresponding to 50% growth inhibition, read-out: cytotoxicity (GI50) renal SN12C
Experimental: (§1) Selected indenoisoquinolones described herein were examined for antiproliferative activity against the human cancer cell lines in the National Cancer Institute screen, in which the activity of each compound was evaluated with approximately 55 different cancer cell lines of diverse tumor origins.

[2] = system: MDA-MB-435; test: NCI screen antiproliferative activity, breast MDA-MB-435; type: cell-based, human; conditions: concentration corresponding to 50% growth inhibition, read-out: cytotoxicity (GI50) breast MDA-MB-435
Experimental: as §1

[3] = target: T1, Human recombinant top1 (Homo sapiens, UniProt P11387); test: Top1-mediated DNA cleavage reactions; type: biochemical; design: key to Top 1 Cleavage: weak activity (+); activity similar to compound 2 (++); activity greater than compound 2 (+++); conditions: for Top 1 Cleavage: tested at concentrations ranging up to 10 μM, relative to compound 2
T1 construct: made in house
T1 sequence (P11387 1-765): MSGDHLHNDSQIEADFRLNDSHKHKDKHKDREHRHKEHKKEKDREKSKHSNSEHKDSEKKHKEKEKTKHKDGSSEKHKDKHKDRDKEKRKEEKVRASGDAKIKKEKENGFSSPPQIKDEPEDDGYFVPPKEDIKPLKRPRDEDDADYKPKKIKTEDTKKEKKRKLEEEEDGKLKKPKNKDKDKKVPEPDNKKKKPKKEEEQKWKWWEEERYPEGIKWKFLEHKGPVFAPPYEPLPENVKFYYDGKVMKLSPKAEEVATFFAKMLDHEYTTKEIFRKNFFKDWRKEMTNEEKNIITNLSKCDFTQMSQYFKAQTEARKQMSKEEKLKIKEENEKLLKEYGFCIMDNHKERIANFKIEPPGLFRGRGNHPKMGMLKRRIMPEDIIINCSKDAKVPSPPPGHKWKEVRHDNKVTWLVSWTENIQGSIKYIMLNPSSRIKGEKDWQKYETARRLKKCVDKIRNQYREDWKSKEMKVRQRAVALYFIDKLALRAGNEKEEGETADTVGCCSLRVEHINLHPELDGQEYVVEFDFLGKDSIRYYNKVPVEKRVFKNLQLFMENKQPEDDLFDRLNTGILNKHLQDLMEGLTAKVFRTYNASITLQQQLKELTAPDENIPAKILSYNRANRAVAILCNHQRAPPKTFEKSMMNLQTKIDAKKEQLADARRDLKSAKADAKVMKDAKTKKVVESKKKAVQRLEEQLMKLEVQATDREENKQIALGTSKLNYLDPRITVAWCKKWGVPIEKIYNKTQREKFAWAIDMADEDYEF
Experimental: Human recombinant top1 was purified from Baculovirus as described by Pourquier et al. in J. Biol. Chem. 274:8516-23 (1999), the disclosure of which is incorporated herein by reference. The 161 bp fragment from pBluescript SK(−) phagemid DNA (Stratagene, La Jolla, Calif.) was cleaved with the restriction endonuclease Pvu II and Hind III (New England Biolabs, Beverly, Mass.) in supplied NE buffer 2 (10 μL reactions) for 1 h at 37° C., and separated by electrophoresis in a 1% agarose gel made in 1×TBE buffer. The 161 bp fragment was eluted from the gel slice (centrilutor by Amicon) and concentrated in a centricon 50 centrifugal concentrator (Amicon, Beverly, Mass.). Approximately 200 ng of the fragment was 3′-end labeled at the Hind III site by fill-in reaction with [alpha-^32P]-dGTP and 0.5 mM dATP, dCTP, and dTTP, in React 2 buffer (50 mM Tris-HCl, pH 8.0, […], 50 mM NaCl) with 0.5 units of DNA polymerase I (Klenow fragment). Unincorporated ^32P-dGTP was removed using mini Quick Spin DNA columns (Roche, Indianapolis, Ind.), and the eluate containing the 3′-end-labeled 161 bp fragment was collected. Aliquots (approximately 50,000 dpm/reaction) were incubated with top1 at 22° C. for 30 min in the presence of the tested drug. Reactions were terminated by adding SDS (0.5% final concentration). The samples (10 μL) were mixed with 30 μL of loading buffer (80% formamide, 10 mM sodium hydroxide, 1 mM sodium EDTA, 0.1% xylene cyanol, and 0.1% bromophenol blue, pH 8.0). Aliquots were separated in denaturing gels (16% polyacrylamide, 7 M urea). Gels were dried and visualized by using a Phosphoimager and ImageQuant software (Molecular Dynamics, Sunnyvale, Calif.).

[4] = system: OVCAR-3; test: NCI screen antiproliferative activity, ovarian OVCAR-3; type: cell-based; conditions: Homo sapiens, concentration corresponding to 50% growth inhibition, read-out: cytotoxicity (GI50) ovarian OVCAR-3
Experimental: as §1

[5] = system: UACC-62; test: NCI screen antiproliferative activity, melanoma UACC-62; type: cell-based; conditions: Homo sapiens, concentration corresponding to 50% growth inhibition, read-out: cytotoxicity (GI50) melanoma UACC-62
Experimental: as §1

[6] = system: human cancer cell lines; test: NCI screen mean graph midpoint over approximately 55 cancer cell lines; type: cell-based; conditions: for GI50: read-out: MGM (mean graph midpoint for growth inhibition); for cytotoxicity compared with other compounds: human cancer cell cultures
Experimental: Selected indenoisoquinolones described herein were examined for antiproliferative activity against the human cancer cell lines in the National Cancer Institute screen, in which the activity of each compound was evaluated with approximately 55 different cancer cell lines of diverse tumor origins. […] The relative activities of selected indenoisoquinolines described herein were obtained from the top 1-mediated DNA cleavage assay, and are also shown in Table 1. Compounds 2 and 7 are also included the Table 1.

[7] = system: SF-539; test: NCI screen antiproliferative activity, CNS SF-539; type: cell-based; conditions: Homo sapiens, concentration corresponding to 50% growth inhibition, read-out: cytotoxicity (GI50) CNS SF-539
Experimental: as §1

[8] = system: HOP-62; test: NCI screen antiproliferative activity, lung HOP-62; type: cell-based; conditions: Homo sapiens, concentration corresponding to 50% growth inhibition, read-out: cytotoxicity (GI50) lung HOP-62
Experimental: as §1

[9] = system: DU-145; test: NCI screen antiproliferative activity, prostate DU-145; type: cell-based; conditions: Homo sapiens, concentration corresponding to 50% growth inhibition, read-out: cytotoxicity (GI50) prostate DU-145
Experimental: as §1

[10] = system: HCT-116; test: NCI screen antiproliferative activity, colon HCT-116; type: cell-based; conditions: Homo sapiens, concentration corresponding to 50% growth inhibition, read-out: cytotoxicity (GI50) colon HCT-116
Experimental: as §1

Compound | GI50 [1] [µM] | GI50 ([2]; Homo sapiens) [µM] | top1 inhibitory activity compared with other compounds [3] | GI50 [4] [µM] | melting point | GI50 [5] [µM] | GI50 ([6]; Homo sapiens) [µM] | Top 1 Cleavage [3] | cytotoxicity compared with other compounds [6] | GI50 [7] [µM] | GI50 [8] [µM] | GI50 [9] [µM] | GI50 [10] [µM] | GI50 [2] [µM] | GI50 ([6]; average GI50 of all approximately 55 cell lines, values outside 10^-8 to 10^-4 molar taken as the limits) | pattern of top1-mediated DNA cleavage sites [3]
COc1cc2c3c(n(C)c(=O)c2cc1OC)-c1cc2c(cc1C3=CCCCCBr)OCO2 [compound 20, 11-(5′-Bromopentylidene)-5,6-dihydro-2,3-dimethoxy-6-methyl-8,9-methylenedioxy-5-oxo-11H-indeno[1,2-c]isoquinoline] | > 100 | > 100 | higher inhibitory activity against top1 than the four-carbon alkenyl halides 19 and 24 | > 100 | 196 to 197 °C | > 100 | 33.1 | – | – | – | – | – | – | – | – | –
COc1cc2c3c(n(C)c(=O)c2cc1OC)-c1cc2c(cc1C3=CCCCCCBr)OCO2 [compound 21, 11-(6′-Bromohexylidene)-5,6-dihydro-2,3-dimethoxy-6-methyl-8,9-methylenedioxy-5-oxo-11H-indeno[1,2-c]isoquinoline] | – | – | higher inhibitory activity against top1 than the four-carbon alkenyl halides 19 and 24 | – | 182 to 185 °C | – | 7.8 | + | slightly more cytotoxic than compounds 18-20 | – | – | – | – | – | – | –
COc1cc2c3c(n(C)c(=O)c2cc1OC)-c1cc2c(cc1C3=CCCCBr)OCO2 [compound 19, 11-(4′-Bromobutylidene)-5,6-dihydro-2,3-dimethoxy-6-methyl-8,9-methylenedioxy-5-oxo-11H-indeno[1,2-c]isoquinoline] | > 100 | > 100 | – | 58.1 | 197 to 199 °C | 11.4 | 27.8 | 0 | – | 30 | 19.4 | 67.8 | 37.8 | – | – | –
COc1cc2cc3n(c(=O)c2cc1OC)Cc1cc2ccccc2nc1-3 [compound 8, 8,9-Dimethoxy-12H-5,11a-diaza-dibenzo[b,h]fluoren-11-one] | > 100 | > 100 | – | > 100 | – | > 100 | 91.2 | + | generally less cytotoxic than compound 2 | > 100 | > 100 | > 100 | 57.3 | – | – | –
COc1cc2c3c(n(C)c(=O)c2cc1OC)-c1cc2c(cc1C3=O)OCO2 [compound 2, reference compound] | – | – | – | – | – | – | – | ++ | – | – | – | – | – | 96 | 20.0 µM and 20 µM | –
COc1cc2c3c(n(C)c(=O)c2cc1OC)-c1cc2c(cc1C3=CCCCCl)OCO2 [compound 18, 11-(4′-Chlorobutylidene)-5,6-dihydro-2,3-dimethoxy-6-methyl-8,9-methylenedioxy-5-oxo-11H-indeno[1,2-c]isoquinoline] | > 100 | > 100 | – | – | 196 to 201 °C | – | 33.1 | + | – | – | – | – | – | – | – | –
COc1cc2c3c(n(C)c(=O)c2cc1OC)-c1cc2c(cc1C3=CCCCI)OCO2 [compound 24, 11-(4′-Iodobutylidene)-5,6-dihydro-2,3-dimethoxy-6-methyl-8,9-methylenedioxy-5-oxo-11H-indeno[1,2-c]isoquinoline] | 8.8 | 5.2 | – | 22.8 | 173 to 174.5 °C | 3.5 | 16.8 | 0 | slightly more cytotoxic than compounds 18-20 | 4.3 | 27.6 | 28.7 | 0.56 | – | – | –
COc1cc2c3c(n(C)c(=O)c2cc1OC)-c1cc2c(cc1C3=CCCN)OCO2 [compound 26, 11-(3′-Aminopropylidene)-5,6-dihydro-2,3-dimethoxy-6-methyl-8,9-methylenedioxy-5-oxo-11H-indeno[1,2-c]isoquinoline] | 0.58 | 1.8 | more potent as a top1 poison than compound 2 | 0.56 | > 180 °C (dec.) | 0.2 | 0.34 | +++ | – | 0.42 | 0.071 | 0.37 | 0.028 | – | – | –
O=c1c2ccccc2cc2n1Cc1cc3ccccc3nc1-2 [compound 13, 12H-5,11a-Diaza-dibenzo[b,h]fluoren-11-one] | > 100 | 41.8 | – | 39.8 | – | 97.2 | 58.9 | ++ | generally less cytotoxic than compound 2 | 66.7 | 68.2 | > 100 | 32.7 | – | – | better resembled that of compound 2 than that of camptothecin
